What was measured:
Assay in all cases: Test E pre-/postemergence herbicide test
[1] = tested on: green foxtail; type: in vivo, Setaria viridis
Outline: (§1)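 Herbicidal effect scored visually, 0–100 scale, versus controls. Treatments: preemergence on planted seed; postemergence on 2–18 cm seedlings. Greenhouse, 12 to 14 days.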

[2] = tested on: goosegrass; type: in vivo, Eleusine indica
Outline: as §1

[3] = tested on: annual bluegrass; type: in vivo, Poa annua
Outline: as §1

[4] = tested on: purple nutsedge; type: in vivo, Cyperus rotundus
Outline: as §1

[5] = tested on: field bindweed; type: in vivo, Convolvulus arvensis
Outline: as §1

[6] = tested on: tropical spiderwort; type: in vivo, Commelina benghalensis
Outline: as §1

[7] = tested on: downy bromegrass; type: in vivo, Bromus tectorum
Outline: as §1

[8] = tested on: Canada horseweed; type: in vivo, Erigeron Canadensis
Outline: as §1

[9] = tested on: kochia; type: in vivo, Kochia scoparia
Outline: as §1

[10] = tested on: common chickweed; type: in vivo, Stellaria media
Outline: as §1

[11] = tested on: Russian thistle; type: in vivo, Salsola kali
Outline: as §1

[12] = tested on: bipinnate beggarticks; type: in vivo, Bidens bipinnata; settings: Preemergence
From the text: Seeds of plant species selected from bipinnate beggarticks (Bidens bipinnata L.), hairy beggarticks (Bidens radiata Thuill.), bermudagrass (Cynodon dactylon (L.) Pers.), Surinam grass (Urochloa decumbens (Staph) R. D. Webster, previously named Brachiaria decumbens Stapf), large crabgrass (Digitaria sanguinalis (L.) Scop.), green foxtail (Setaria viridis (L.) P. Beauv.), goosegrass (Eleusine indica (L.) Gaertn.), johnsongrass (Sorghum halepense (L.) Pers.), kochia (Kochia scoparia (L.) Schrad.), pitted morningglory (Ipomoea lacunosa L.), purple nutsedge (Cyperus rotundus L.), common ragweed (Ambrosia elatior L.), mustard (Brassica nigra (L.) W. D. J. Koch), guineagrass (Panicum maximum Jacq.), dallisgrass (Paspalum dilatatum Poir.), barnyardgrass (Echinochloa crus-galli (L). P. Beauv.), southern sandbur (Cenchrus echinatus L.), common sowthistle (Sonchus oleraceous L.), prickly sida (Sida spinosa L.), Italian ryegrass (Lolium multiflorum Lam.), common purslane (Portulaca oleracea L.), broadleaf signalgrass (Brachiaria platyphylla (Griseb.) Nash), common groundsel (Senecio vulgaris L.), common chickweed (Stellaria media (L.) Vill/Cyr.), tropical spiderwort (Commelina benghalensis L.), annual bluegrass (Poa annua L.), downy bromegrass (Bromus tectorum L.), itchgrass (Rottboellia cochinchinensis (L.) L.f.), quackgrass (Elytrigia repens (L.) Nevski), Canada horseweed (Erigeron Canadensis L.), field bindweed (Convolvulus arvensis L.), spotted spurge (Euphorbia maculata L.), common mallow (Malva sylvestris (=s silvestris) L.), and Russian thistle (Salsola kali L. ssp. Ruthenica (Iljin) Soo) were planted and treated preemergence with test chemicals formulated in a non-phytotoxic solvent mixture which included a surfactant.
At the same time, plants selected from these weed species were treated with postemergence applications of some of the test chemicals formulated in the same manner. Plants ranged in height from 2 to 18 cm (1- to 4-leaf stage) for postemergence treatments. Treated plants and controls were maintained in a greenhouse for 12 to 14 days, after which time all species were compared to controls and visually evaluated. Plant response ratings, summarized in Table E, are based on a scale of 0 to 100 where 0 is no effect and 100 is complete control. A dash (-) response means no test result.

[13] = Postemergence, 500 g ai/ha, scale 0 to 100
[14] = Postemergence, 250 g ai/ha, scale 0 to 100
[15] = Preemergence, 62 g ai/ha, scale 0 to 100
[16] = Preemergence, 125 g ai/ha, scale 0 to 100
[17] = Preemergence, 250 g ai/ha, scale 0 (no effect) to 100 (complete control)
[18] = Preemergence, 500 g ai/ha, scale 0 (no effect) to 100 (complete control)
[19] = postemergence, 125 g ai/ha, scale 0 to 100
[20] = postemergence, 62 g ai/ha, scale 0 to 100
[21] = 250 g ai/ha, scale 0 (no effect) to 100 (complete control)

## CCn1nc(C(C)(C)C)cc1C(=O)Nc1cc(C(=O)N(C)C)ccn1 [Compound 156, 2-[[[3-(1,1-dimethylethyl)-1-ethyl-1H-pyrazol-5-yl]carbonyl]amino]-N,N-dimethyl-4-pyridinecarboxamide]
[1]; [13]
  Plant response rating, Foxtail, Green: 100
[1]; [14]
  Plant response rating, Foxtail, Green: 100
[1]; [15]
  Plant response rating, Foxtail, Green: 100
[1]; [16]
  Plant response rating, Foxtail, Green: 100
[1]; [17]
  Plant response rating, Foxtail, Green: 100
[1]; [18]
  Plant response rating, Foxtail, Green: 100
[1]; [19]
  Plant response rating, Foxtail, Green: 95
[1]; [20]
  Plant response rating, Foxtail, Green: 75
[2]; [13]
  Plant response rating, Goosegrass: 98
[2]; [14]
  Plant response rating, Goosegrass: 98
[2]; [15]
  Plant response rating, Goosegrass: 95
[2]; [16]
  Plant response rating, Goosegrass: 95
[2]; [17]
  Plant response rating, Goosegrass: 100
[2]; [18]
  Plant response rating, Goosegrass: 100
[2]; [19]
  Plant response rating, Goosegrass: 98
[2]; [20]
  Plant response rating, Goosegrass: 95
[3]; [13]
  Plant response rating, Bluegrass: 98
[3]; [14]
  Plant response rating, Bluegrass: 98
[3]; [15]
  Plant response rating, Bluegrass: 95
[3]; [16]
  Plant response rating, Bluegrass: 95
[3]; [17]
  Plant response rating, Bluegrass: 100
[3]; [18]
  Plant response rating, Bluegrass: 100
[3]; [19]
  Plant response rating, Bluegrass: 95
[3]; [20]
  Plant response rating, Bluegrass: 90
[4]; [14]
  Plant response rating, Nutsedge, Purple: 90
[4]; [18]
  Plant response rating, Nutsedge, Purple: 95
[4]; [19]
  Plant response rating, Nutsedge, Purple: 75
[5]; [13]
  Plant response rating, Bindweed, Field: 100
[5]; [14]
  Plant response rating, Bindweed, Field: 80
[5]; [15]
  Plant response rating, Bindweed, Field: 60
[5]; [16]
  Plant response rating, Bindweed, Field: 90
[5]; [17]
  Plant response rating, Bindweed, Field: 100
[5]; [18]
  Plant response rating, Bindweed, Field: 100
[5]; [19]
  Plant response rating, Bindweed, Field: 65
[5]; [20]
  Plant response rating, Bindweed, Field: 65
[6]; [13]
  Plant response rating, Spiderwort: 65
[6]; [14]
  Plant response rating, Spiderwort: 50
[6]; [15]
  Plant response rating, Spiderwort: 30
[6]; [16]
  Plant response rating, Spiderwort: 50
[6]; [17]
  Plant response rating, Spiderwort: 50
[6]; [18]
  Plant response rating, Spiderwort: 80
[6]; [19]
  Plant response rating, Spiderwort: 30
[6]; [20]
  Plant response rating, Spiderwort: 20
[7]; [13]
  Plant response rating, Bromegrass, Downy: 100
[7]; [14]
  Plant response rating, Bromegrass, Downy: 100
[7]; [15]
  Plant response rating, Bromegrass, Downy: 60
[7]; [16]
  Plant response rating, Bromegrass, Downy: 80
[7]; [17]
  Plant response rating, Bromegrass, Downy: 100
[7]; [18]
  Plant response rating, Bromegrass, Downy: 100
[7]; [19]
  Plant response rating, Bromegrass, Downy: 100
[7]; [20]
  Plant response rating, Bromegrass, Downy: 90
[8]; [13]
  Plant response rating, Horseweed: 100
[8]; [14]
  Plant response rating, Horseweed: 100
[8]; [15]
  Plant response rating, Horseweed: 95
[8]; [16]
  Plant response rating, Horseweed: 100
[8]; [17]
  Plant response rating, Horseweed: 100
[8]; [18]
  Plant response rating, Horseweed: 100
[9]; [13]
  Plant response rating, Kochia: 100
[9]; [14]
  Plant response rating, Kochia: 100
[9]; [15]
  Plant response rating, Kochia: 100
[9]; [16]
  Plant response rating, Kochia: 100
[9]; [17]
  Plant response rating, Kochia: 100
[9]; [18]
  Plant response rating, Kochia: 100
[9]; [19]
  Plant response rating, Kochia: 100
[10]; [13]
  Plant response rating, Chickweed: 100
[10]; [14]
  Plant response rating, Chickweed: 100
[10]; [15]
  Plant response rating, Chickweed: 80
[10]; [16]
  Plant response rating, Chickweed: 100
[10]; [17]
  Plant response rating, Chickweed: 100
[10]; [18]
  Plant response rating, Chickweed: 100
[10]; [19]
  Plant response rating, Chickweed: 100
[10]; [20]
  Plant response rating, Chickweed: 100
[11]; [14]
  Plant response rating, Thistle: 80
[11]; [15]
  Plant response rating, Thistle: 80
[11]; [16]
  Plant response rating, Thistle: 100
[11]; [18]
  Plant response rating, Thistle: 100

## CCc1nn(C(C)C)nc1C(=O)Nc1cccc(C(=O)N2CCCCC2)c1 [Compound 385]
[1]; [15]
  Plant response rating, Foxtail, Green: 10
[1]; [16]
  Plant response rating, Foxtail, Green: 30
[1]; [17]
  Plant response rating, Foxtail, Green: 60
[2]; [15]
  Plant response rating, Goosegrass: 20
[2]; [16]
  Plant response rating, Goosegrass: 20
[2]; [17]
  Plant response rating, Goosegrass: 50
[12]; 62 g ai/ha, scale 0 to 100
  Plant response rating, Beggarticks, Bip.: 0
[12]; 125 g ai/ha, scale 0 to 100
  Plant response rating, Beggarticks, Bip.: 30
[12]; [21]
  Plant response rating, Beggarticks, Bip.: 30
[3]; [15]
  Plant response rating, Bluegrass: 0
[3]; [16]
  Plant response rating, Bluegrass: 10
[3]; [17]
  Plant response rating, Bluegrass: 30
[5]; [15]
  Plant response rating, Bindweed, Field: 10
[5]; [16]
  Plant response rating, Bindweed, Field: 10
[5]; [17]
  Plant response rating, Bindweed, Field: 20
[6]; [16]
  Plant response rating, Spiderwort: 0
[6]; [17]
  Plant response rating, Spiderwort: 0
[7]; [15]
  Plant response rating, Bromegrass, Downy: 10
[7]; [16]
  Plant response rating, Bromegrass, Downy: 10
[7]; [17]
  Plant response rating, Bromegrass, Downy: 20
[8]; [15]
  Plant response rating, Horseweed: 0
[8]; [17]
  Plant response rating, Horseweed: 0
[10]; [15]
  Plant response rating, Chickweed: 20
[10]; [16]
  Plant response rating, Chickweed: 20
[10]; [17]
  Plant response rating, Chickweed: 60
[11]; [16]
  Plant response rating, Thistle: 50

## CCc1nn(C(C)C)nc1C(=O)Nc1cccc(C(=O)N(C)CC)c1 [Compound 386]
[1]; [16]
  Plant response rating, Foxtail, Green: 60
[1]; [17]
  Plant response rating, Foxtail, Green: 95
[2]; [16]
  Plant response rating, Goosegrass: 80
[2]; [17]
  Plant response rating, Goosegrass: 95
[12]; [21]
  Plant response rating, Beggarticks, Bip.: 40
[3]; [16]
  Plant response rating, Bluegrass: 60
[3]; [17]
  Plant response rating, Bluegrass: 95
[5]; [16]
  Plant response rating, Bindweed, Field: 20
[5]; [17]
  Plant response rating, Bindweed, Field: 60
[6]; [16]
  Plant response rating, Spiderwort: 10
[6]; [17]
  Plant response rating, Spiderwort: 70
[7]; [16]
  Plant response rating, Bromegrass, Downy: 10
[7]; [17]
  Plant response rating, Bromegrass, Downy: 40
[8]; [16]
  Plant response rating, Horseweed: 75
[8]; [17]
  Plant response rating, Horseweed: 95
[10]; [16]
  Plant response rating, Chickweed: 95
[10]; [17]
  Plant response rating, Chickweed: 95
